The values that follow come from patent US12723055B2, “Phosphoantigen prodrug compounds” (priority 2018, dated 2026).

The EC50 is the concentration giving half of the maximal effect.

The subject of data set [1] is T24 urinary bladder carcinoma cell lines. The data set can be described thus: Cytotoxicity assay: specific lysis of T24 bladder cancer cells by Vγ9/Vδ2 T-cells. Format: cell-based, human. The settings on record: T24 cells incubated 4 hours with 100 pM ProPAgen 4d; effector target ratio 10:1, 18 hours; compared with 10 μM zoledronate and HMBPP. The procedure: FIG. 13. Cytotoxocity Assay showing potent lysis of bladder cancer cells following incubation with the HMBP phosphonate ProPAgen 4d. ProPAgen 4d mediates the specific lysis of T24 bladder cancer cells by Vγ9/Vδ2 T-cells.
Vγ9Vδ2 T cells were expanded from PBMCs in the presence of 5 μM zoledronate for 14 days and 100 U/ml IL-2 (Peprotech) was added into the media every 2-3 days, yielding ~85% Vγ9Vδ2 T cells. […] All cells were then labelled with eFluor780 viability dye and CFSE^+ eFluor780 viability dye^+ cells were measured using flow cytometry. Data were analysed using FlowJo V10.

For a further data set, the system named is human Vγ9/Vδ2+ T cells. Nature of the data set: Activation of human Vγ9/Vδ2+ T cells in PBMC (CD69 and CD25 upregulation, flow cytometry). The settings on record: for Vγ9/Vδ2 T-cell activation potency (in words): human PBMC from healthy donors, 18-20 h, CD69/CD25, compared with HMBP phosphate ProPAgens or HMBPP; for EC50: human PBMC, 18 hr incubation, CD69 and CD25 upregulation. Format: cell-based. The method, then: FIG. 7. Activation of human Vγ9/Vδ2^+ T cells by HMBP phosphonate ProPAgens 4d and 9d. Human peripheral blood mononuclear cells (PBMC) were incubated with the indicated concentrations of ProPAgens 4d (left) and 9d (right) for 18 hr. TCR Vγ9/Vδ2^+ T cells were then assessed for the upregulation of cell surface markers, CD69 and CD25, as a readout to the activation of Vγ9/Vδ2^+ T cells. EC50 for both ProPAgens is ca. 8 pM (picomolar).
FIG. 8. FACS data showing the activation of human Vγ9/Vδ2^+ T cells by the HMBP phosphonate ProPAgen 4d in a dose-dependent manner. Human peripheral blood mononuclear cells (PBMC) were incubated with the indicated concentrations of ProPAgens 4d for 18 h (FIG. 8A) or 20 h (FIGS. 8B and 8C). For 20 h incubations, data was collected and analysed individually from two separate donors: Donor (1) results shown in FIG. 8B, Donor (2) results shown in FIG. 8C. TCR Vγ9/Vδ2^+ T cells were then assessed for the upregulation of cell surface markers, CD69 and CD25, as a readout to the activation of Vγ9/Vδ2^+ T cells.
FIG. 9. FACS data showing the activation of human Vγ9/Vδ2^+ T cells by the HMBP phosphonate ProPAgen 9d in a dose-dependent manner. Human peripheral blood mononuclear cells (PBMC) were incubated with the indicated concentrations of ProPAgens 9d for 18 h (FIG. 9A) or 20 h (FIGS. 9B and 9C). For 20 h incubations, data was collected and analysed individually from two separate donors: Donor (1) results shown in FIG. 9B, Donor (2) results shown in FIG. 9C. TCR Vγ9/Vδ2^+ T cells were then assessed for the upregulation of cell surface markers, CD69 and CD25, as a readout to the activation of Vγ9/Vδ2^+ T cells.
FIG. 10. […] Data was collected and analysed individually from two separate donors: Donor (1) results shown in FIG. 10A, Donor (2) results shown in FIG. 10B. TCR Vγ9/Vδ2^+ T cells were then assessed for the upregulation of cell surface markers, CD69 and CD25, as a readout to the activation of Vγ9/Vδ2^+ T cells.
Peripheral blood γδ T-cells lack appreciable levels of surface CD69 or CD25 under steady state conditions, but upon T-cell receptor (TCR) stimulation upregulate both T-cell activation markers within 72 hours. PAg responsive Vγ9/Vδ2 T-cells were then distinguished by TCR Vγ9 and Vδ2 expression and assessed for the upregulation CD69 and CD25. […]
Untreated and treated PBMCs were labelled with Zombie aqua viability dye (Biolegend) and subsequently were stained with a mixture of BV421-conjugated anti-CD3 (UCHT1, Biolegend), BV650-conjugated anti-CD8 (SK1; BD Bioscience), FITC-conjugated anti-CD25 (M-A25, Biolegend), PE-conjugated anti-CD69 (TP1.55.3; Beckman Coulter) and PE Cy5-conjugated anti-Vγ9 TCR (IMMU360, Beckman Coulter) and APC-conjugated anti-Vδ2 TCR (123R3, Miltenyi Biotech) antibodies. […] Data were analysed using FlowJo V10 software.
(A flow cytometer gives signals particle by particle.)

A short description of data set [2]: Stability in human serum at 37° C. monitored by 31P NMR. Format: in vitro ADME. The settings on record: 12 h. The method, then:
FIG. 5: Stability of HMBP phosphonate ProPAgen 4d in human serum at 37° C. for 12 hours as monitored by ^31P NMR. Prodrug 4d (5.0 mg) was dissolved in DMSO-d6 (0.10 mL) and D2O (0.15 mL). All ^31P NMR spectra were recorded at 37° C. Initially, a ^31P NMR scan of prodrug 4d (5.0 mg) in DMSO-d6 (0.10 mL) and D2O (0.15 mL) was recorded (shown as compound 4d alone in the figure). Following this, a previously defrosted human serum (0.30 mL) was added to the NMR tube and a spectrum immediately run. Spectra were recorded at 30 min after the addition and then at even time intervals over 12 hr.
FIG. 6: Stability of HMBP phosphonate ProPAgen 9a in human serum at 37° C. for 12 hours as monitored by ^31P NMR. Same as for compound 4d above. […] In fact, these are eight peaks as predicted and two extra peaks are seen when zoomed into these peaks to make the predicted eight phosphorous peaks of such compounds.
ProPAgen 4d with human serum at 37° C. for 12 h and monitored the sample by ^31P-NMR as reported previously^11.

The test system of the next data set is human CD8+ T cells. Nature of the data set: Activation of human CD8+ T cells in PBMC (CD69 and CD25 upregulation, flow cytometry). Format: cell-based. The settings on record: for Concentration without CD8+ T cell activation relative to Vγ9/Vδ2 T-cell activation EC50: 1 μM versus calculated EC50; for Activation of CD8+ T cells: human PBMC, 20 h, up to 1 μM, CD69/CD25. The procedure: FIG. 11. FACS data showing a lack of activation of human CD8+ T cells by the HMBP phosphonate ProPAgen 4d. Human PBMCs were incubated with the indicated concentrations of ProPAgen 4d for 20 h. TCR CD8^+ T cells were then assessed for the upregulation of cell surface markers, CD69 and CD25, as a readout of the activation of CD8^+ T cells. Data was collected and analysed individually from two separate donors: Donor (1) results shown in FIG. 11A, Donor (2) results shown in FIG. 11B.
FIG. 12. FACS data showing a lack of activation of human CD8+ T cells by the HMBP phosphonate ProPAgen 9d. Human PBMCs were incubated with the indicated concentrations of ProPAgen 9d for 20 h. TCR CD8^+ T cells were then assessed for the upregulation of cell surface markers, CD69 and CD25, as a readout of the activation of CD8^+ T cells. Data was collected and analysed individually from two separate donors: Donor (1) results shown in FIG. 12A, Donor (2) results shown in FIG. 12B.
Like peripheral blood γδ T-cells, peripheral blood CD8+ T-cells lack appreciable levels of surface CD69 or CD25 under steady state conditions, but upon T-cell receptor (TCR) stimulation upregulate both T-cell activation markers within 72 hours. PAg responsive CD8 T-cells were then distinguished by TCR CD8 expression and assessed for the upregulation CD69 and CD25.
Blood was obtained in the presence of a mixture of Heparin and Ethylenediaminetetraacetic acid (EDTA) as anticoagulants (2 U/ml heparin, 1.5 mM EDTA) from consented healthy donors (approved by the NRES Committee West Midlands ethical board; REC reference 14/WM/1254). Blood was then layered on a density gradient medium, lymphoprep (Stem Cell Technologies) and Peripheral blood mononuclear cells (PBMCs) were purified by gradient centrifugation. The cells were washed 2 times with Phosphate Buffered Saline (PBS), then resuspended in RPMI-1640 media supplemented with 2 mM L-glutamine, 25 mM HEPES, 1% sodium pyruvate, 50 μg/ml penicillin/streptomycin (Invitrogen) and 10% foetal calf serum.
Untreated and treated PBMCs were labelled with Zombie aqua viability dye (Biolegend) and subsequently were stained with a mixture of BV421-conjugated anti-CD3 (UCHT1, Biolegend), BV650-conjugated anti-CD8 (SK1; BD Bioscience), FITC-conjugated anti-CD25 (M-A25, Biolegend), PE-conjugated anti-CD69 (TP1.55.3; Beckman Coulter) and PE Cy5-conjugated anti-Vγ9 TCR (IMMU360, Beckman Coulter) and APC-conjugated anti-Vδ2 TCR (123R3, Miltenyi Biotech) antibodies. The percentages of CD69^+CD25^+ within CD8^+ T cell subset or Vγ9Vδ2 T-cell population were measured using flow cytometer. Data were analysed using FlowJo V10 software.

In the case of `C/C(=C\CCP(=O)(N[C@@H](C)C(=O)OCc1ccccc1)Oc1ccccc1)CO` (stereo partly shown) [ProPAgen 4d], the “T24 bladder cancer lysis by Vγ9/Vδ2 T-cells” value in data set [1] is “significant enhancement”. For the same molecule, in the data set on human Vγ9/Vδ2+ T cells, the “Vγ9/Vδ2 T-cell activation potency (in words)” value is “potent Vγ9/Vδ2 T-cells activation” and the EC50 was about 8 pM. For the same molecule, the “Stability in human serum” value in data set [2] is on record as “no degradation observed”. For the same molecule, in the data set on human CD8+ T cells, the “Concentration without CD8+ T cell activation relative to Vγ9/Vδ2 T-cell activation EC50” value was “approx. 100,000 times” and the “Activation of CD8+ T cells” value was “did not exhibit activation”.

Regarding `C/C(=C\CC(F)(F)P(=O)(N[C@@H](C)C(=O)OCc1ccccc1)Oc1ccccc1)CO` (stereo partly shown) [ProPAgen 9d], in the data set with human Vγ9/Vδ2+ T cells, the “Vγ9/Vδ2 T-cell activation potency (in words)” value is “potent Vγ9/Vδ2 T-cells activation” and the concentration for a half-maximal effect (EC50) was about 8 pM. Besides, in the data set on human CD8+ T cells, the “Concentration without CD8+ T cell activation relative to Vγ9/Vδ2 T-cell activation EC50” value is “approx. 100,000 times” and the “Activation of CD8+ T cells” value is on record as “did not exhibit activation”.
